According to PMC4072508, “Genome-Wide Prediction and Validation of Peptides That Bind Human Prosurvival Bcl-2 Proteins” (PLoS Computational Biology, 2014):
“And” between values parts separate entries of the source, which are not always exact repeats. Equal values may be shown once. Read-outs that look alike come from different tables or passages of the source. No end group written: not given here.

Columns and labels:
[1] = molecular target: T1, Bfl-1 (Homo sapiens, UniProt Q16548); test: Fluorescence polarization direct binding
T1 construct: myc- Bfl-1 SPOT array & FP; made in house
T1 sequence (Q16548 with tags, fused parts or gaps): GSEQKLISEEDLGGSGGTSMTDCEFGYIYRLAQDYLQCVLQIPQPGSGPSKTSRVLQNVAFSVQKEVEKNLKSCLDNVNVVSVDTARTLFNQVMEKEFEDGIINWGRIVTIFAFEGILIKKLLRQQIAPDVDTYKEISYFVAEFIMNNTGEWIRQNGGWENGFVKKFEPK
Method: (§1) Peptides were purified by reverse-phase HPLC using a C18 column and a linear water/acetonitrile gradient. We re-analyzed the purified peptide by mass spectrometry if there was not a single well-defined peak in HPLC chromatogram.
(§2) Fluorescence polarization (FP) assays were done at 25°C in assay buffer (20 mM NaPO4, 50 mM NaCl, 1 mM EDTA, 0.001% Triton X (v/v), pH 7.8). […] For all FP experiments, the total well volume was 120 µl. […] Anisotropy was measured using a Spectramax M5 plate reader from Molecular Devices.
(§3) Direct binding curves were fit using Pylab/Scipy/Optimize to a single-site binding model utilized previously.
(§4) ^1Best-fit KD values determined by combining all replicate titration curves and fitting to a direct binding model (see Methods). […] Values with an X followed by a number indicate the highest concentration (the number, in nM) for which signal was measured yet no binding was detected.

[2] = molecular target: T2, Bcl-w (Homo sapiens, UniProt Q92843, Q133R); test: Fluorescence polarization direct binding
T2 construct: myc-Bcl-w SPOT array & FP; made in house
T2 sequence (Q92843 with tags, fused parts or gaps Q133R): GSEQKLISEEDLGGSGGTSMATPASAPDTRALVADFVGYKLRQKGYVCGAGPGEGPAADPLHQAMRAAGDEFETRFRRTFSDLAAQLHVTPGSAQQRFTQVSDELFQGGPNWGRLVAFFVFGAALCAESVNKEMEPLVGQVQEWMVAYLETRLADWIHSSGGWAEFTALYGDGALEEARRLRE
Method: as §1, §2, §3, §4

[3] = molecular target: T3, Mcl-1 (Homo sapiens, UniProt Q07820); test: Fluorescence polarization direct binding
T3 construct: myc-Mcl-1 SPOT array & FP; made in house
Method: as §1, §2, §3, §4

[4] = molecular target: T4, Bcl-2 (Homo sapiens, UniProt P10415, DEL53-91); test: Fluorescence polarization direct binding
T4 construct: myc- Bcl-2 FP; made in house
Method: as §1, §2, §3, §4

[5] = molecular target: T5, Bcl-xL (Homo sapiens, UniProt Q07817); test: Fluorescence polarization direct binding
T5 construct: myc-Bcl-xL SPOT array & FP; made in house
Method: as §1, §2, §3, §4

[6] = molecular target: T3, Mcl-1; conditions: read-out: Binder class, Mcl-1; S1 Bim variants, specific binding measured using yeast display; ref Dutta et al. (2010); cited from earlier work
Excerpt: Negative control mutatio ...

[7] = molecular target: T5, Bcl-xL; conditions: S1 Bim variants, specific binding measured using yeast display; ref Dutta et al. (2010); cited from earlier work
[8] = FP direct binding, 10 nM FAM-labeled peptide, receptor titrated, 25°C, pH 7.8, fit of all replicate titrations, X+number in a cell = highest concentration (nM) measured with no binding detected, given here as >, SPNS1 fit to raw fluorescence, read-out: Best-fit KD, Bfl-1
[9] = benchmark classification of peptides newly characterized in this study, read-out: Binder class, Bfl-1
[10] = FP direct binding, 10 nM FAM-labeled peptide, receptor titrated, 25°C, pH 7.8, fit of all replicate titrations, X+number in a cell = highest concentration (nM) measured with no binding detected, given here as >, SPNS1 fit to raw fluorescence, read-out: Best-fit KD, Bcl-w
[11] = benchmark classification of peptides newly characterized in this study, read-out: Binder class, Bcl-w
[12] = Binder class, Mcl-1, benchmark classification of peptides newly characterized in this study
[13] = FP direct binding, 10 nM FAM-labeled peptide, receptor titrated, 25°C, pH 7.8, fit of all replicate titrations, X+number in a cell = highest concentration (nM) measured with no binding detected, given here as >, SPNS1 fit to raw fluorescence
[14] = FP direct binding, 10 nM FAM-labeled peptide, receptor titrated, 25°C, pH 7.8, fit of all replicate titrations, X+number in a cell = highest concentration (nM) measured with no binding detected, given here as >, SPNS1 fit to raw fluorescence, read-out: Best-fit KD, Bcl-2
[15] = benchmark classification of peptides newly characterized in this study, read-out: Binder class, Bcl-2
[16] = FP direct binding, 10 nM FAM-labeled peptide, receptor titrated, 25°C, pH 7.8, fit of all replicate titrations, X+number in a cell = highest concentration (nM) measured with no binding detected, given here as >, SPNS1 fit to raw fluorescence, read-out: Best-fit KD, Bcl-xL
[17] = benchmark classification of peptides newly characterized in this study, read-out: Binder class, Bcl-xL

T4 sequence (P10415 with tags, fused parts or gaps DEL53-91): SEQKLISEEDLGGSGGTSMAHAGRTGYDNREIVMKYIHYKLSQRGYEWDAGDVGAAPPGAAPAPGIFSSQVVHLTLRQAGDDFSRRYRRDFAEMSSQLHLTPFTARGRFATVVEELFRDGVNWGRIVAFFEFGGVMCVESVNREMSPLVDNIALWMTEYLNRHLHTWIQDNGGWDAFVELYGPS
T3 sequence (Q07820 with tags, fused parts or gaps): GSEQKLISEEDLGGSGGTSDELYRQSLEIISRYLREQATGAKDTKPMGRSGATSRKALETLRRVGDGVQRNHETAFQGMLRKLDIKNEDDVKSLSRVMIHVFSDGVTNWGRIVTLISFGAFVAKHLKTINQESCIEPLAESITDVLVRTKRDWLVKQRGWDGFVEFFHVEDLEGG
T5 sequence (Q07817 with tags, fused parts or gaps): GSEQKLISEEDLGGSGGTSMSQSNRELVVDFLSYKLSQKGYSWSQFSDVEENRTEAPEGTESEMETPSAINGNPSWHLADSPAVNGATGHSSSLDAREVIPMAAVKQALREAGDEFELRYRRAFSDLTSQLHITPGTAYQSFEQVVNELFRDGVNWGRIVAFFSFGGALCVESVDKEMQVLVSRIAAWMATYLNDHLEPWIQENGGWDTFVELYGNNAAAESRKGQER

Kd [1, 8] | Kd [1, 9] [nM] | Kd [2, 10] | Kd [2, 11] [nM] | Kd [3, 12] [nM] | Kd [3, 13] | Kd [4, 14] | Kd [4, 15] [nM] | Kd [5, 16] | Kd [5, 17] [nM] | Best-fit KD, Bcl-w [2, 13] | Best-fit KD, Bcl-2 [4, 13] | Best-fit KD, Bcl-xL [5, 13] | Best-fit KD, Mcl-1 [3, 13] | Substance | Kd [6] [µM] | Binder class (Kd bin) [7] [µM]
> 4670 nM | > 10000 | 2490 nM | 1000 to 10000 | < 1000 | 1460 nM | 1410 nM | 1000 to 10000 | 2050 nM | 1000 to 10000 |  |  |  |  | FTGNNTAVQELKRVSEQFTATFRRKA-NH2 [TUBB4Q] |  | 
182 nM | < 1000 | 18 nM | < 1000 | < 1000 | 22 nM | 237 nM | < 1000 | 1460 nM | 1000 to 10000 |  |  |  |  | GDSVLARMLRELGDSLRRPQLRL-NH2 [SLC19A1] |  | 
99 nM | < 1000 | 992 nM | < 1000 | < 1000 | 69 nM | 49 nM | < 1000 |  | 1000 to 10000 |  |  |  |  | GSGAWGLLLRRVGDDVLVHLLAR-NH2 [TERT] |  | 
< 30 nM and 1 nM | < 1000 | < 30 nM and 5 nM | < 1000 | < 1000 | < 30 nM and 0.9 nM | < 30 nM and 14 nM | < 1000 | < 30 nM and 8 nM | < 1000 |  |  |  |  | IIHKLAMQLRHIGDNIDHRMVRE-NH2 [PXT1] |  | 
> 3370 nM | > 10000 | 85 nM | < 1000 | > 10000 | > 10000 nM | 130 nM | < 1000 | 103 nM | < 1000 | bound tightly | bound tightly | bound tightly |  | KKMTLSEIYRWIADNFPYYKNAG-NH2 [FOXJ2] |  | 
> 3370 nM | > 10000 | > 4350 nM | 1000 to 10000 | < 1000 | 142 nM | > 3050 nM | < 1000 | > 4000 nM | > 10000 |  |  |  | bound tightly | KREKLVEILRNIGDERTMVFVET-NH2 [DDX4] |  | 
> 3290 nM | > 10000 | 5380 nM | 1000 to 10000 | > 10000 | > 4000 nM | 3290 nM | 1000 to 10000 | > 6900 nM | > 10000 |  |  |  |  | LMARPAVALHFQSIADGFKEAVRYVL-NH2 [SOS2] |  | 
3270 nM | 1000 to 10000 | 29 nM | < 1000 | 1000 to 10000 | 3810 nM | 16 nM | < 1000 | 10 nM | < 1000 | bound tightly | bound tightly | bound tightly |  | LRLFLAQRLRWLADSAPASRATA-NH2 [NBEAL2] |  | 
> 4670 nM | > 10000 | 5870 nM | 1000 to 10000 | > 10000 | > 5030 nM | > 100000 nM | 1000 to 10000 | > 4000 nM | > 10000 |  |  |  |  | LSDGLPVHLANIADELTQKKKMF-NH2 [AGBL2] |  | 
 |  |  |  |  |  |  |  |  |  |  |  |  |  | PEIWVAQEIERIGNEVNAYYARR | < 1 | > 10
 |  |  |  |  |  |  |  |  |  |  |  |  |  | PEIWVAQEIGRIGDETNAYYARR | < 1 | > 10
 |  |  |  |  |  |  |  |  |  |  |  |  |  | PEIWVAQEIGRIGNEINAYYARR | < 1 | > 10
 |  |  |  |  |  |  |  |  |  |  |  |  |  | PEIWVAQEINRIGEEINAYYARR | < 1 | > 10
 |  |  |  |  |  |  |  |  |  |  |  |  |  | PEIWVAQEINRVGDEVNAYYARR | < 1 | > 10
 |  |  |  |  |  |  |  |  |  |  |  |  |  | PEIWVAQEIRRVGDENNAYYARR | < 1 | > 10
